According to patent publication US20090292012A1, “Therapeutic Agent” (priority 2005, published 2009):

Tests used:
RAW 264.7 cells = test: Determination of anti-foaming in macrophage (cholesterol ester accumulation with Ac-LDL); assay type: cell-based; details: Ac-LDL 20 μg/mL, 24 hours
Description: Macrophage introduces a modified LDL (such as acetyl LDL (Ac-LDL) into a cell to synthesize cholesterol ester, thereby foaming. An anti-foaming activity for the macrophage with each subject sample was determined.
RAW 264.7 cells (ATCC TIB 71) were suspended in Dulbecco's modified Eagle's medium (manufactured by Sigma, D5796) containing 10% fetal bovine serum (manufactured by Cambrex Corporation), so as to have a concentration of 4×10^5 cells/ml, and the suspension was put to each well of a 24-well microtiter plate in an amount of 1 ml per well. The cells were cultured at 37° C. overnight in the presence of 5% carbon dioxide gas. Next, the medium was exchanged with UltraCHO media (manufactured by Cambrex Corporation, B2724) and 2 μL of the dimethyl sulfoxide solution of each of the subject samples prepared in the above-mentioned Preparation Examples was added to each well so as to have a concentration shown in the following Table 1. Here, the purified ethanol extract fraction from a leaf of Peucedanum japonicum -Fr. 2-2 was used for 3′-acetoxy-4′-senecioyloxy-3′,4′-dihydroseselin in Table 1. Further, Ac-LDL (manufactured by Biomedical Technology, Inc., BT-906) at a final concentration of 20 μg/mL was added to each well, and each mixture was cultured for 24 hours. Here, there were set a group without addition of Ac-LDL and a group with addition of dimethyl sulfoxide as controls.
The total amount of cholesterol in a cell and the amount of free cholesterol were determined to calculate the amount of cholesterol ester as an index for anti-foaming for macrophage.
After the termination of the culture, the medium was removed, and the cells were washed with a 0.3% (w/v) BSA (manufactured by Sigma, A-8022) containing phosphate buffered saline and further washed with a phosphate buffered saline. The amount 0.5 mL of a solvent of hexane:isopropanol=3:2 was added to the cells. The mixture was allowed to stand at room temperature for 30 minutes, and thereafter the supernatant was collected. The procedures were repeated again, and a total of 1 mL of the supernatant was concentrated to dryness. The precipitate was dissolved in 30 μL of isopropanol, and thereafter the total amount of cholesterol contained in 10 μL of the resulting solution was determined with Cholesterol E-Test (manufactured by Wako Pure Chemical Industries, Ltd., 439-17501) and the amount of free cholesterol was determined with Free Cholesterol E-Test (manufactured by Wako Pure Chemical Industries, Ltd., 435-35801). All of the determinations were carried out twice. The amount of biosynthesis of cholesterol ester was determined by subtracting the amount of free cholesterol from the total amount of cholesterol. The anti-foaming activity was calculated in accordance with the following formula. […]

ACAT = test: Determination of inhibitory activity for ACAT, rat liver microsome, [3H]oleoyl-CoA; assay type: biochemical; details: relative to 10 μM FR179254 set as 100%
Description: Four of Sprague-Dawley rats were bred for one week and thereafter sacrificed, and the livers were immediately excised. The excised livers were shortly washed with cold brine, and thereafter immersed (25 mL/a rat) into sucrose buffer (0.3 M sucrose, 50 mM Tris-HCl, 1 mM EDTA, 50 mM NaCl, pH 7.4). The resulting livers were homogenized, and the procedures of centrifuging at 10,000×g for 30 minutes and removing the formed precipitates were repeated twice for the homogenized livers. The resulting supernatant was centrifuged at 105,000×g for 70 minutes, and the precipitates were collected and suspended in an appropriate amount of 100 mM phosphate buffer (pH 7.4). The suspension was again suspended in the phosphate buffer so as to have a protein concentration of 10 mg/ml, and EDTA was added thereto so as to have a final concentration of 1 mM. Thereafter, the suspension was subjected to frozen storage at −80° C. until being used.
The enzymatic activity of ACAT was determined according to the partially modified method of Lee et al. (Planta Med., 2004, 70, 678-679).
In a 1.5 mL Eppendorf tube, 1 μL of a dimethyl sulfoxide solution of each subject sample was added to a 92 μL of a reaction aqueous solution (0.05 M potassium phosphate, 1 mM dithiothreitol, 9 mg/mL fatty acid-free bovine serum albumin, 200 μg/mL cholesterol, pH 7.4) containing 1.5 μL of the rat liver microsome prepared in item (1) of Example 2 so as to have a final concentration described in Table 2, and the mixture was incubated at 37° C. for 30 minutes. Here, the purified ethanol extract fraction from a leaf of Peucedanum japonicum -Fr. […] The radioactivity was determined with a liquid scintillation counter LS6500 (manufactured by Beckmann) using 150 μL of the resulting supernatant with Ultima Gold (manufactured by PerkinElmer Life Sciences Inc., 6013329) as a scintillation cocktail. […] The inhibitory activity for ACAT (%) of each of the subject samples was calculated in accordance with the following formula setting an inhibitory ratio upon addition of 10 μM FR179254 which is a positive control as 100%. […]

mouse = test: Single oral dose toxicity in mouse; assay type: in vivo; details: 1 g/kg weight
Description: No toxicity is found even when the above-mentioned effective ingredient used in the present invention is administered in an effective dose for the exhibition of its action in a living body.

CC(=O)OC1C(OC(=O)C=C(C)C)c2c(ccc3ccc(=O)oc23)OC1(C)C (centres unmarked) [3′-acetoxy-4′-senecioyloxy-3′,4′-dihydroseselin] was tested, and the inhibition at 20 µM (RAW 264.7 cells; Mus musculus, RAW264.7, final concentration 20 μM) was 19%, the inhibition at 40 µM (RAW 264.7 cells; Mus musculus, RAW264.7, final concentration 40 μM) was 98% and the “Anti-Foaming Activity (%)” value (RAW 264.7 cells; final concentration 0.1 %) was 34%. The “Anti-Foaming Activity (%)” value (RAW 264.7 cells; final concentration 0.2 %) was 72%, the “Inhibitory Activity for ACAT (%)” value (ACAT; final concentration 25 μM) was 40% and the “Inhibitory Activity for ACAT (%)” value (ACAT; final concentration 50 μM) was 65%. The “Inhibitory Activity for ACAT (%)” value (ACAT; final concentration 100 μM) was 87% and the “deaths after oral administration” value (mouse) was “no cases of deaths are found”.
